Experimental data published in patent JP2020514407A, “アポリポプロテイン模倣物を用いる加齢黄斑変性と他の眼疾患の治療” (MacRegen Inc, priority 2017, dated 2018).

Experiments:
[1] = system: neutral lipid in and on Bruch's membrane [ブルッフ膜内及びブルッフ膜上の中性脂質]; experiment: Oil red O (ORO) staining of neutral lipid in and on Bruch's membrane, aged macaques with naturally occurring age-related maculopathy; assay type: in vivo, cynomolgus macaque (Macaca fascicularis); settings: injected eye; 6 monthly intravitreal injections, total 625 μg; after 6 months; vs scrambled L-4F
[2] = system: esterified cholesterol in Bruch's membrane [ブルッフ膜内のエステル型コレステロール]; experiment: Filipin fluorescence of esterified cholesterol in Bruch's membrane, aged macaques; assay type: in vivo, cynomolgus macaque (Macaca fascicularis); settings: injected eye; 6 monthly intravitreal injections, total 625 μg; vs scrambled L-4F
[3] = system: membrane attack complex (MAC, C5b-9) [膜侵襲複合体(MAC、C5b−9)]; experiment: Immunohistochemistry of membrane attack complex in Bruch's membrane and choriocapillaris, aged macaques; assay type: in vivo, cynomolgus macaque (Macaca fascicularis); settings: injected eye; 6 monthly intravitreal injections, total 625 μg; vs scrambled L-4F
[4] = system: complement factor D (CFD) [補体因子D(CFD)]; experiment: Immunohistochemistry of complement factor D, aged macaques; assay type: in vivo, cynomolgus macaque (Macaca fascicularis); settings: injected eye; 6 monthly intravitreal injections, total 625 μg; vs scrambled L-4F
Bruch's membrane [ブルッフ膜] = experiment: Bruch's membrane thickness and integrity by electron microscopy, aged macaques; assay type: in vivo, cynomolgus macaque (Macaca fascicularis)
[5] = system: fellow non-injected eye [もう片方の非注射側の眼]; experiment: Effect in the fellow non-injected eye (staining and thickness, figures 2 to 6), aged macaques; assay type: in vivo, cynomolgus macaque (Macaca fascicularis); settings: after 6 monthly intravitreal injections (figures 2 to 6)
[6] = Tolerability and adverse events of intravitreal injection, aged macaques; assay type: in vivo, cynomolgus macaque (Macaca fascicularis); settings: all macaques; 6 monthly intravitreal injections
[7] = system: high-sensitivity C-reactive protein (hsCRP) [高感度C−反応性タンパク質(hsCRP)]; experiment: Blood level of high-sensitivity C-reactive protein, aged macaques; assay type: in vivo, cynomolgus macaque (Macaca fascicularis); settings: 6 monthly intravitreal injections
[8] = estimated; cited from earlier work
[9] = system: geographic atrophy [地図状萎縮]; settings: 10 mg intravitreal once a month, 18 months, cited from earlier work

Substance: Ac−DWFKAFYDKVAEKFKEAF−NH2 (Ac-DWFKAFYDKVAEKFKEAF-NH2) [L−4F]
- reduction of lipid deposits from Bruch's membrane (oil red O staining) compared with placebo-injected eyes [1]: ~56%
- reduction of esterified cholesterol in Bruch's membrane (filipin fluorescence, semiquantitative) compared with placebo-injected eyes [2]: ~68%
- reduction of MAC (C5b-9) level in Bruch's membrane and choriocapillaris compared with eyes injected with scrambled peptide [3]: ~58%
- reduction of complement factor D level compared with eyes injected with scrambled peptide [4]: ~41%
- thickness of Bruch's membrane (Bruch's membrane [ブルッフ膜]; L-4F-injected eye, temporal outer macula, post mortem, printed 1.31μm±SE0.11, placebo (scrambled L-4F) 1.73μm±SE0.02): 1.31 μm
- Bruch's membrane integrity (Bruch's membrane [ブルッフ膜]; after removal of lipid deposits, confirmed by electron microscopy): BrMの完全性が回復し
- reduction of Bruch's membrane thickness compared with placebo-injected eyes (Bruch's membrane [ブルッフ膜]; injected eye, temporal outer macula, vs scrambled L-4F): ~24%
- effect on the fellow non-injected eye relative to the injected eye [5]: 同様の効果を有していた
- tolerability [6]: 十分耐性があり
- change in hsCRP blood level compared with the day before the first injection [7]: hsCRPの血中レベルを増加させなかった

Substance: アフリベルセプト: soluble fusion protein comprising extracellular domains of VEGFR
- intravitreal half-life [8]: ~216 h

Substance: ラニビズマブ: anti-VEGF antibody or fragment
- intravitreal half-life [8]: ~170 h

Substance: ランパリズマブ: antigen-binding fragment (Fab) of a humanized monoclonal antibody targeting complement factor D
- reduction of geographic atrophy area, CFI biomarker-positive subgroup ([9]; CFI biomarker-positive patients): ~44%
- reduction of geographic atrophy area in the injected eye compared with placebo patients ([9]; one eye): ~20%

Substance: ベバシズマブ: anti-VEGF antibody or fragment
- intravitreal half-life [8]: ~235 h
